Data on 34 compounds can be found in ChEMBL document CHEMBL1148465, “Carbonic anhydrase inhibitors: the first selective, membrane-impermeant inhibitors targeting the tumor-associated isozyme IX” (Bioorg Med Chem Lett, 2004).

Among the targets are Carbonic anhydrase 9 (Homo sapiens, UniProt Q16790); Carbonic anhydrase 1 (Homo sapiens, UniProt P00915); Carbonic anhydrase 2 (Homo sapiens, UniProt P00918).
The next assay addresses T1, Carbonic anhydrase 4 (Bos taurus, UniProt Q95323).
T1 sequence (Q95323 whole entry): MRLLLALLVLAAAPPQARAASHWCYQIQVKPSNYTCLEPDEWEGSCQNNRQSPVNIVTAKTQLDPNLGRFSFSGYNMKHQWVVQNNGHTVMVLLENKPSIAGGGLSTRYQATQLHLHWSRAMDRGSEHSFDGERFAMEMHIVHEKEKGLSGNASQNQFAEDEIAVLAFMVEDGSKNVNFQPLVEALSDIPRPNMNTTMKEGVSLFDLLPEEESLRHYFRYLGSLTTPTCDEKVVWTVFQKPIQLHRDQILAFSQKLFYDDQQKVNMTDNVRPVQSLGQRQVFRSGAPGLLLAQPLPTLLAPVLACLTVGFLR

Sequence of Carbonic anhydrase 1 (P00915 whole entry): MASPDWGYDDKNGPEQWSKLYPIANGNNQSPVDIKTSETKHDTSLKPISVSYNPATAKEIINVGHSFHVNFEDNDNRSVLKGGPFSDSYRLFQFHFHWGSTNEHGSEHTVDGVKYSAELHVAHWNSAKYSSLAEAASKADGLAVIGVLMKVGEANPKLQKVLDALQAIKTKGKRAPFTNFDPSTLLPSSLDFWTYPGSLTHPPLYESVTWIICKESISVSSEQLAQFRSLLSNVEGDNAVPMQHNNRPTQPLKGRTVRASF
Description for Carbonic anhydrase 1: Inhibitory activity against human carbonic anhydrase I
Description for Carbonic anhydrase 2: Inhibitory activity against human carbonic anhydrase II
Description for Carbonic anhydrase 4: Inhibitory activity against carbonic anhydrase IV from bovine lung microsomes
Description for Carbonic anhydrase 9: Inhibitory activity against human carbonic anhydrase IX

Regarding `CC(C)(C)c1cc(-c2ccccc2)cc(-c2ccccc2)[n+]1Cc1ccc(S(N)(=O)=O)cc1`, the inhibition constant (Ki) on Carbonic anhydrase 9 is above 500 nM. `NS(=O)(=O)c1ccc(C[n+]2c(-c3ccccc3)cccc2-c2ccccc2)cc1`: the Ki was found to be 1950 nM on Carbonic anhydrase 4 and 280000 nM on Carbonic anhydrase 1. As to `CCCc1cc(-c2ccccc2)cc(CCC)[n+]1CCc1ccc(S(N)(=O)=O)cc1`, at Carbonic anhydrase 1, the affinity, expressed as Ki, was 7000 nM. `Cc1cc(-c2ccccc2)cc(C)[n+]1Cc1ccc(S(N)(=O)=O)cc1`: the results for the inhibition constant (Ki) on Carbonic anhydrase 4 and at Carbonic anhydrase 1 were 70 nM and 4000 nM, respectively. `CC(C)c1cc(-c2ccccc2)cc(-c2ccccc2)[n+]1Cc1ccc(S(N)(=O)=O)cc1`: the Ki on Carbonic anhydrase 1 is 112000 nM. `CCc1cc(-c2ccccc2)cc(CC)[n+]1Cc1ccc(S(N)(=O)=O)cc1`: the Ki was 2000 nM at Carbonic anhydrase 1 and 21 nM at Carbonic anhydrase 2. As for `Cc1cc(C(C)C)[n+](CCc2ccc(S(N)(=O)=O)cc2)c(C(C)C)c1`, the inhibition constant Ki on Carbonic anhydrase 4 came to 70 nM; on Carbonic anhydrase 1 it was 3000 nM; on Carbonic anhydrase 2 it was 20 nM. The compound `CCc1cc(-c2ccccc2)cc(-c2ccccc2)[n+]1CCc1ccc(S(N)(=O)=O)cc1` came in with an inhibitory constant (Ki) at Carbonic anhydrase 1 of 40000 nM. For `Cc1cc(C)[n+](CCc2ccc(S(N)(=O)=O)cc2)c(C(C)C)c1`, the affinity on Carbonic anhydrase 1 corresponds to a Ki of 2000 nM. Compound `CCCc1cc(-c2ccccc2)cc(-c2ccccc2)[n+]1CCc1ccc(S(N)(=O)=O)cc1` gave a Ki at Carbonic anhydrase 1 of 112000 nM. Take `CCCCc1cc(-c2ccccc2)cc(-c2ccccc2)[n+]1Cc1ccc(S(N)(=O)=O)cc1`: the inhibitory constant (Ki) was determined as 2100 nM at Carbonic anhydrase 4, 135 nM on Carbonic anhydrase 9, 300000 nM at Carbonic anhydrase 1 and 595 nM on Carbonic anhydrase 2. For the compound `Cc1cc(C)[n+](-c2ccc(S(N)(=O)=O)cc2)c(C)c1`, on Carbonic anhydrase 1, the Ki came out at 10000 nM.

`CC(C)c1cc(-c2ccccc2)cc(-c2ccccc2)[n+]1-c1ccc(S(N)(=O)=O)cc1`: the inhibition constant (Ki) at Carbonic anhydrase 4 is 2100 nM; at Carbonic anhydrase 9, above 500 nM. Turning to `Cc1cc(-c2ccccc2)cc(-c2ccccc2)[n+]1-c1ccc(S(N)(=O)=O)cc1`, the affinity at Carbonic anhydrase 1, expressed as Ki, was 40000 nM. In other words, the double-digit micromolar range. Regarding `Cc1cc(C)[n+](CCc2ccc(S(N)(=O)=O)cc2)c(C)c1C`, the inhibitory constant (Ki) at Carbonic anhydrase 4 amounted to 21 nM; on Carbonic anhydrase 9 it was 8 nM; on Carbonic anhydrase 1, 2000 nM. Turning to `Cc1cc(C)[n+](-c2ccc(S(N)(=O)=O)cc2)c(C)c1C`, the Ki at Carbonic anhydrase 1 was found to be 5000 nM. As to `Cc1cc(C)[n+](Cc2ccc(S(N)(=O)=O)cc2)c(C)c1`, the values for the Ki at Carbonic anhydrase 1 and at Carbonic anhydrase 2 were 7000 nM and 50 nM, respectively. For `Cc1cc(C)[n+](Cc2ccc(S(N)(=O)=O)cc2)c(C)c1C`, at Carbonic anhydrase 1, the affinity, expressed as Ki, was 3000 nM. `CC(C)(C)c1cc(-c2ccccc2)cc(-c2ccccc2)[n+]1CCc1ccc(S(N)(=O)=O)cc1` had an inhibition constant (Ki) at Carbonic anhydrase 9 above 500 nM. Take `NS(=O)(=O)c1ccc(-[n+]2c(-c3ccccc3)cc(-c3ccccc3)cc2-c2ccccc2)cc1`: the Ki on Carbonic anhydrase 9 was above 500 nM; on Carbonic anhydrase 1 it was 290000 nM. For `Cc1cc(-c2ccccc2)cc(C)[n+]1-c1ccc(S(N)(=O)=O)cc1`, the Ki at Carbonic anhydrase 1 stood at 7000 nM; at Carbonic anhydrase 2 it was 60 nM. Turning to `CCc1cc(-c2ccccc2)cc(CC)[n+]1CCc1ccc(S(N)(=O)=O)cc1`, the Ki turned out to be 21 nM on Carbonic anhydrase 4, 8 nM at Carbonic anhydrase 9 and 1000 nM at Carbonic anhydrase 1.

For the compound `CCCc1cc(-c2ccccc2)cc(-c2ccccc2)[n+]1-c1ccc(S(N)(=O)=O)cc1`, at Carbonic anhydrase 9, the Ki is above 500 nM. `CCCc1cc(-c2ccccc2)cc(CCC)[n+]1-c1ccc(S(N)(=O)=O)cc1` returned a Ki at Carbonic anhydrase 1 of 10000 nM. For the compound `CCc1cc(-c2ccccc2)cc(-c2ccccc2)[n+]1Cc1ccc(S(N)(=O)=O)cc1`, the Ki at Carbonic anhydrase 4 was 983 nM; at Carbonic anhydrase 9, 79 nM; on Carbonic anhydrase 1, 42000 nM; on Carbonic anhydrase 2, 314 nM. For `Cc1cc(-c2ccccc2)cc(C)[n+]1CCc1ccc(S(N)(=O)=O)cc1`, at Carbonic anhydrase 1, the Ki is 1000 nM. This counts as single-digit micromolar. `Cc1cc(C)[n+](Cc2ccc(S(N)(=O)=O)cc2)c(C(C)C)c1`: the Ki on Carbonic anhydrase 1 stood at 6000 nM; at Carbonic anhydrase 2 it was 50 nM. `Cc1cc(C(C)C)[n+](Cc2ccc(S(N)(=O)=O)cc2)c(C(C)C)c1` displayed a Ki on Carbonic anhydrase 4 of 144 nM. On to `NS(=O)(=O)c1ccc(C[n+]2c(-c3ccccc3)cc(-c3ccccc3)cc2-c2ccccc2)cc1`, for which the Ki came out at 1960 nM on Carbonic anhydrase 4, 120 nM at Carbonic anhydrase 9 and 280000 nM at Carbonic anhydrase 1. As for `CC(C)c1cc(-c2ccccc2)cc(C(C)C)[n+]1CCc1ccc(S(N)(=O)=O)cc1`, the inhibitory constant (Ki) on Carbonic anhydrase 1 turned out to be 6000 nM; at Carbonic anhydrase 2, 21 nM. Regarding `CCCCc1cc(-c2ccccc2)cc(-c2ccccc2)[n+]1CCc1ccc(S(N)(=O)=O)cc1`, the results for the Ki at Carbonic anhydrase 9 and on Carbonic anhydrase 1 were 120 nM and 290000 nM, respectively.

At Carbonic anhydrase 1, `CC(C)c1cc(-c2ccccc2)cc(C(C)C)[n+]1-c1ccc(S(N)(=O)=O)cc1` yielded an inhibitory constant (Ki) of 5000 nM. Take `CCc1cc(-c2ccccc2)cc(CC)[n+]1-c1ccc(S(N)(=O)=O)cc1`: the Ki at Carbonic anhydrase 1 worked out at 6000 nM; on Carbonic anhydrase 2, 60 nM. As to `CCCCc1cc(-c2ccccc2)cc(-c2ccccc2)[n+]1-c1ccc(S(N)(=O)=O)cc1`, on Carbonic anhydrase 9, the Ki was above 500 nM.
